Measured values taken from publication PMC4721142, “Randomized controlled studies on the efficacy of antiarthritic agents in inhibiting cartilage degeneration and pain associated with progression of osteoarthritis in the rat” (Arthritis Research & Therapy, 2016).
“And” between values parts separate entries of the source, which are not always exact repeats. Identical values can stand only once.

Columns and labels:
MMT/MCLT rat model of OA [1] = assay: MMT/MCLT trial 1 histopathology (same doses); type: in vivo; conditions: low or only dose
Procedure, shortened: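 Rat knee joints were sectioned in 200-μm steps and stained with toluidine blue. Tibial cartilage degeneration was scored on a 5-point scale in three zones and summed with femoral scores, plus osteophyte scores, to give a total joint score. Results were averaged over three sections.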

MIA rat model of OA = assay: MIA trial 1 weight bearing (daily s.c. clonidine 0.1, fluocinolone 0.002, morphine 6 mg/kg); type: in vivo
Experimental: Weight bearing (WB; incapacitance) was measured five times per day, once per week, using a Linton incapacitance meter (Stoelting Co., Wood Dale, IL, USA). Rats were acclimated to the meter before study initiation, and, similarly, immediately before WB, the animals were placed in the meter and allowed to acclimate for 2–5 minutes. Each hind paw was placed on a separate force plate so that the force exerted by each side could be averaged over a 5-second interval, and the mean of three readings was taken for each data point. Right paw force was compared with that on the left side for each group to confirm that animals were displaying incapacitance and/or pain behavior. Differences in force (left minus right) and right paw force as a percentage of the total force exerted by both paws were determined and compared between groups.
Following isoflurane anesthesia, 50 μl (2 mg) of MIA was injected into the synovial space of the left knee. Animals were randomly assigned to groups, and pain behavior was assessed 7, 14, 21, and 28 days following MIA injection and intervention using WB with the Stoelting incapacitance meter (trial 1) or the dRS test (trials 2 and 3). […] Animals received MIA treatment and then saline control or therapeutic. […] Histopathology was performed at each time point and at study termination. All studies were conducted in accordance with the International Association for the Study of Pain Guidelines and were approved by the Algos Therapeutics, Inc. Institutional Animal Care and Use Committee (IACUC) before initiation. Those running the studies were blind to the treatments. See Additional file 1 for further details. […]
dosing were housed three per cage. Animals had free access to food and water and were maintained […]
The animal colony was maintained at approximately 21 °C. All experiments were conducted in accordance with the International Association for the Study of Pain Guidelines.

MMP-13 = MMP-13 ELISA on supernatants of TNF-α-treated chondrogenic pellets; type: cell-based, human
MMT/MCLT rat model of OA [2] = assay: MMT/MCLT trial 2 histopathology (same doses); type: in vivo; conditions: mean
Description: For MMT/MCLT rat knee joints, sections were cut in 200-μm steps; stained with toluidine blue (also with a right and left half per section); and similarly analyzed for cartilage degeneration, proteoglycan loss, collagen damage, and osteophyte formation. Results were averaged across the three sections for an overall semiquantitative score. Regional differences across the tibial plateau were taken into consideration by dividing each section into three zones delineated using an ocular micrometer (outside, middle, and inside). Scores were based on the percentage of area affected within the zone.
Cartilage degeneration in the tibia was scored on a 5-point scale as detailed in the Methods section of Additional file 1. The total extent of degeneration of the tibial plateau was measured (in micrometers) and included an analysis of cell loss, proteoglycan loss, and collagen damage. Significant cartilage degeneration reflecting any degeneration extending through more than 50 % of the cartilage thickness was also measured. Collagen damage across the medial tibial plateau (the most severely affected section of the two halves) was also quantified.
Osteophytes and femoral cartilage degeneration were analyzed as detailed in Additional file 1. Scoring of the osteophytes and categorization into small, medium, and large was performed using an ocular micrometer. The actual osteophyte measurement (tidemark to farthest distance point extending toward the synovium) was also recorded. The femoral cartilage degeneration score and the three-zone sum of the tibial cartilage degeneration scores (mean of three levels) were summed to create a total cartilage degeneration score. The mean osteophyte score for each joint was added to this value to create a total joint score. […]
Histopathology MMT/MCLT Model

[3] = tacrolimus 30 ng i.a., clonidine 100 μg/kg s.c.

`Clc1cccc(Cl)c1N=C1NCCN1` [Clonidine] was tested, and the Bone score (MMT/MCLT rat model of OA [1]; mean) was 2.88, the “Depth ratio any matrix change, mean” value (MMT/MCLT rat model of OA [1]; mean) was 0.35 and the “Depth ratio any matrix change, zone 2” value (MMT/MCLT rat model of OA [1]; mean) was 0.16. For the same compound, the “Femoral cartilage degeneration score” value (MMT/MCLT rat model of OA [1]; mean) was 1.29 and 1.29 ± 0.20, the “Tibial cartilage degeneration score, 3-zone total” value (MMT/MCLT rat model of OA [1]; mean) was 6.13 and the “Tibial cartilage degeneration score, zone 1” value (MMT/MCLT rat model of OA [1]; mean) was 4.13. The “Tibial cartilage degeneration score, zone 2” value (MMT/MCLT rat model of OA [1]; mean) was 2.00, the “Tibial cartilage degeneration score, zone 3” value (MMT/MCLT rat model of OA [1]; mean) was 0.00 and the “Tibial cartilage degeneration width, significant” value (MMT/MCLT rat model of OA [1]; mean) was 691.67 µm. For the same compound, the “Tibial cartilage degeneration width, total” value (MMT/MCLT rat model of OA [1]; mean) was 1175.00 µm, the Tibial osteophyte measure (MMT/MCLT rat model of OA [1]; mean) was 540.00 µm and the Tibial osteophyte score (MMT/MCLT rat model of OA [1]; mean) was 3.92. For the same compound, the Total joint score (MMT/MCLT rat model of OA [1]; mean) was 11.33 and 11.33 ± 0.55, the “Total joint score w/o femur” value (MMT/MCLT rat model of OA [1]; mean) was 10.04 and the “% decrease, bone score” value (MMT/MCLT rat model of OA [1]; vs saline group) was 12%. The “% decrease, depth ratio mean” value (MMT/MCLT rat model of OA [1]; vs saline group) was 2%, the “% decrease, depth ratio zone 2” value (MMT/MCLT rat model of OA [1]; vs saline group) was 14% and the “% decrease, femoral cartilage degeneration score” value (MMT/MCLT rat model of OA [1]; vs saline group) was 30%. The “% decrease, osteophyte measure” value (MMT/MCLT rat model of OA [1]; vs saline group) was -5%, the “% decrease, osteophyte score” value (MMT/MCLT rat model of OA [1]; vs saline group) was 0% and the “% decrease, significant degeneration width” value (MMT/MCLT rat model of OA [1]; vs saline group) was 5%. For the same compound, the “% decrease, tibial score 3-zone total” value (MMT/MCLT rat model of OA [1]; vs saline group) was 6%, the “% decrease, tibial score zone 1” value (MMT/MCLT rat model of OA [1]; vs saline group) was 4% and the “% decrease, tibial score zone 2” value (MMT/MCLT rat model of OA [1]; vs saline group) was 9%. The “% decrease, tibial score zone 3” value (MMT/MCLT rat model of OA [1]; vs saline group) was 100%, the “% decrease, total degeneration width” value (MMT/MCLT rat model of OA [1]; vs saline group) was 10% and the “% decrease, total joint score” value (MMT/MCLT rat model of OA [1]; vs saline group) was 8%. For the same compound, the “% decrease, total joint score w/o femur” value (MMT/MCLT rat model of OA [1]; vs saline group) was 4%, the “Weight bearing, hours after dosing with significant difference” value (MIA rat model of OA; day 14) was 1 h and the “Weight bearing, hours after dosing with significant difference” value (MIA rat model of OA; day 21, BL baseline) was 1 h. For the same compound, the “Effective range against MMP-13” value (MMP-13) was “Not effective”, the “Femoral cartilage degeneration score” value (MMT/MCLT rat model of OA [2]; i.a., tacrolimus 15 ng) was 0.67 ± 0.23 and the Total joint score (MMT/MCLT rat model of OA [2]; i.a., tacrolimus 15 ng) was 9.13 ± 0.54. For the same compound, the “Femoral cartilage degeneration score” value (MMT/MCLT rat model of OA [2]; [3]) was 0.77 ± 0.28 and the Total joint score (MMT/MCLT rat model of OA [2]; [3]) was 11.03 ± 0.61.
